# Laboratory results published in patent US20260285850A1, “SUBSTITUTED OXAZOLIDINONES AND IMIDAZOLINONES AS HERBICIDES” (FMC CORPORATION, priority 2023, published 2026).
# Key:
# Format in all cases: in vivo
# [1] = tested on: ducksalad (Heteranthera limosa); assay: Test B flooded paddy test, visual plant response rating 0-100; settings: 250 g ai/ha, Flood, applied to paddy water, evaluated after 13 days
# Outline: (§1)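 Greenhouse, 13 d. Seedlings at 2-leaf stage, pots flooded to 3 cm, compound delivered into floodwater, water level held constant. Evaluated visually relative to controls.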
# rice (Oryza sativa) = assay: as above; settings: 250 g ai/ha, Flood, applied to paddy water, evaluated after 13 days
# Outline: as §1
# [2] = tested on: barnyardgrass (Echinochloa crusgalli); assay: as above; settings: 250 g ai/ha, Flood, applied to paddy water, evaluated after 13 days
# Outline: as §1
# [3] = tested on: sedge, umbrella (small-flower umbrella sedge, Cyperus difformis); assay: as above; settings: 250 g ai/ha, Flood, applied to paddy water, evaluated after 13 days
# Outline: as §1
# [4] = tested on: ryegrass, Italian (italian ryegrass, Lolium multiflorum); assay: Test A postemergence application, visual injury rating 0-100
# Outline: (§2)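 Rating: visual, day 10, untreated plants as reference, 0 no effect to 100 full control. Plants were in loam-sand and were treated either preemergence via directed soil spray or postemergence at the one- to two-leaf stage.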
# corn (Zea mays) [5] = assay: as above
# Outline: as §2
# [6] = tested on: oat, wild (wild oat, Avena fatua); assay: as above
# Outline: as §2
# [7] = tested on: ragweed (common ragweed, Ambrosia artemisiifolia); assay: as above
# Outline: as §2
# [8] = tested on: galium (catchweed bedstraw, Galium aparine); assay: as above
# Outline: as §2
# kochia (Bassia scoparia) [9] = assay: as above
# Outline: as §2
# [10] = tested on: horseweed (Erigeron canadensis); assay: as above
# Outline: as §2
# [11] = tested on: blackgrass (Alopecurus myosuroides); assay: as above
# Outline: as §2
# soybean (Glycine max) [12] = assay: as above
# Outline: as §2
# [13] = tested on: green foxtail (Setaria viridis); assay: as above
# Outline: as §2
# [14] = tested on: wheat (Triticum aestivum); assay: as above
# Outline: as §2
# [15] = tested on: palmer (palmer amaranth, palmer pigweed, Amaranthus palmeri); assay: as above
# Outline: as §2
# [16] = tested on: barnyardgrass (Echinochloa crus-galli); assay: as above
# Outline: as §2
# [17] = tested on: ryegrass, Italian (italian ryegrass, Lolium multiflorum); assay: Test A preemergence soil spray, visual injury rating 0-100; settings: 10 days
# Outline: as §2
# corn (Zea mays) [18] = assay: as above; settings: 10 days
# Outline: as §2
# [19] = tested on: oat, wild (wild oat, Avena fatua); assay: as above; settings: 10 days
# Outline: as §2
# [20] = tested on: ragweed (common ragweed, Ambrosia artemisiifolia); assay: as above; settings: 10 days
# Outline: as §2
# kochia (Bassia scoparia) [21] = assay: as above; settings: 10 days
# Outline: as §2
# [22] = tested on: blackgrass (Alopecurus myosuroides); assay: as above; settings: 10 days
# Outline: as §2
# soybean (Glycine max) [23] = assay: as above; settings: 10 days
# Outline: as §2
# [24] = tested on: green foxtail (Setaria viridis); assay: as above; settings: 10 days
# Outline: as §2
# [25] = tested on: wheat (Triticum aestivum); assay: as above; settings: 10 days
# Outline: as §2
# [26] = tested on: palmer (palmer amaranth, palmer pigweed, Amaranthus palmeri); assay: as above; settings: 10 days
# Outline: as §2
# [27] = tested on: barnyardgrass (Echinochloa crus-galli); assay: as above; settings: 10 days
# Outline: as §2
# [28] = 62 g ai/ha, postemergence, 10 days, 0 = no effect, 100 = complete control
# [29] = Postemergence, 16 g ai/ha, greenhouse 10 days, 0 no effect, 100 complete control
# [30] = 62 g ai/ha, 0 = no effect, 100 = complete control
smiles,measurement,setting,value
COC(=O)C1CC(NC(=O)C2(C)CN(c3cc(F)cc(F)c3)C(=O)O2)C1 (stereo not shown) [Compound 130],"Plant response rating, Ducksalad (0 to 100 scale, 0 is no effect and 100 is complete control)",[1],100
same,"Plant response rating, Rice (0 to 100 scale, 0 is no effect and 100 is complete control)",rice (Oryza sativa),60
same,"Plant response rating, Barnyardgrass (0 to 100 scale, 0 is no effect and 100 is complete control)",[2],80
same,"Plant response rating, Sedge, Umbrella (0 to 100 scale, 0 is no effect and 100 is complete control)",[3],90
same,"Ryegrass, Italian plant response rating (0-100)",[4]; [28],90
same,"Ryegrass, Italian plant response rating (0 to 100 scale)",[4]; [29],70
same,Corn plant response rating (0-100),corn (Zea mays) [5]; [28],100
same,Corn plant response rating (0 to 100 scale),corn (Zea mays) [5]; [29],100
same,"Oat, Wild plant response rating (0-100)",[6]; [28],90
same,"Oat, Wild plant response rating (0 to 100 scale)",[6]; [29],90
same,Ragweed plant response rating (0-100),[7]; [28],30
same,Ragweed plant response rating (0 to 100 scale),[7]; [29],20
same,Galium plant response rating (0-100),[8]; [28],90
same,Galium plant response rating (0 to 100 scale),[8]; [29],70
same,Kochia plant response rating (0-100),kochia (Bassia scoparia) [9]; [28],90
same,Kochia plant response rating (0 to 100 scale),kochia (Bassia scoparia) [9]; [29],80
same,Horseweed plant response rating (0-100),[10]; [28],30
same,Horseweed plant response rating (0 to 100 scale),[10]; [29],10
same,Blackgrass plant response rating (0-100),[11]; [28],90
same,Blackgrass plant response rating (0 to 100 scale),[11]; [29],90
same,Soybean plant response rating (0-100),soybean (Glycine max) [12]; [28],70
same,Soybean plant response rating (0 to 100 scale),soybean (Glycine max) [12]; [29],60
same,"Foxtail, Green plant response rating (0-100)",[13]; [28],90
same,"Foxtail, Green plant response rating (0 to 100 scale)",[13]; [29],90
same,Wheat plant response rating (0-100),[14]; [28],90
same,Wheat plant response rating (0 to 100 scale),[14]; [29],90
same,"Pigweed, Palmer plant response rating (0-100)",[15]; [28],90
same,"Pigweed, Palmer plant response rating (0 to 100 scale)",[15]; [29],80
same,Barnyardgrass plant response rating (0-100),[16]; [28],80
same,Barnyardgrass plant response rating (0 to 100 scale),[16]; [29],70
same,"Ryegrass, Italian plant response rating","[17]; 16 g ai/ha, 0 to 100 scale",40
same,"Ryegrass, Italian plant response rating (0-100)",[17]; [30],90
same,Corn plant response rating,"corn (Zea mays) [18]; 16 g ai/ha, 0 to 100 scale",10
same,Corn plant response rating (0-100),corn (Zea mays) [18]; [30],90
same,"Oat, Wild plant response rating","[19]; 16 g ai/ha, 0 to 100 scale",50
same,"Oat, Wild plant response rating (0-100)",[19]; [30],90
same,Ragweed plant response rating,"[20]; 16 g ai/ha, 0 to 100 scale",0
same,Ragweed plant response rating (0-100),[20]; [30],0
same,Kochia plant response rating,"kochia (Bassia scoparia) [21]; 16 g ai/ha, 0 to 100 scale",0
same,Kochia plant response rating (0-100),kochia (Bassia scoparia) [21]; [30],90
same,Blackgrass plant response rating,"[22]; 16 g ai/ha, 0 to 100 scale",70
same,Blackgrass plant response rating (0-100),[22]; [30],90
same,Soybean plant response rating,"soybean (Glycine max) [23]; 16 g ai/ha, 0 to 100 scale",0
same,Soybean plant response rating (0-100),soybean (Glycine max) [23]; [30],40
same,"Foxtail, Green plant response rating","[24]; 16 g ai/ha, 0 to 100 scale",50
same,"Foxtail, Green plant response rating (0-100)",[24]; [30],90
same,Wheat plant response rating,"[25]; 16 g ai/ha, 0 to 100 scale",90
same,Wheat plant response rating (0-100),[25]; [30],90
same,"Pigweed, Palmer plant response rating","[26]; 16 g ai/ha, 0 to 100 scale",10
same,"Pigweed, Palmer plant response rating (0-100)",[26]; [30],30
same,Barnyardgrass plant response rating,"[27]; 16 g ai/ha, 0 to 100 scale",0
same,Barnyardgrass plant response rating (0-100),[27]; [30],70
